These compounds were tested against T1, kinase domain protein of RC kinase (Homo sapiens, UniProt Q56UN5) (assay: Enzymatic assay for kinase inhibitory activity (Crebtide substrate, LANCE read-out)). Conditions: compound at 1 μM.
T1 sequence (Q56UN5 1061-1324 limits assumed): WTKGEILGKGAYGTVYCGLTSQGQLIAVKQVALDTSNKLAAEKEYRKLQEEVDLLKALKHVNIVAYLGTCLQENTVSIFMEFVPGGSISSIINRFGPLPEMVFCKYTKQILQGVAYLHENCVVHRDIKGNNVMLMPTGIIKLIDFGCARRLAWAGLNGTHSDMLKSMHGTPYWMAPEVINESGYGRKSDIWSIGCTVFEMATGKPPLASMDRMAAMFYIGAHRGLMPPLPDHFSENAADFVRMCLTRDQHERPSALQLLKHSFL
Format: biochemical
Procedure: Solutions of a test compound, Crebtide (a substrate), a kinase, and ATP were prepared using 1×MAPK Buffer (50 mM HEPES, 1 mM EGTA, […], 10 mM MgCl2, 2 mM DTT, and 0.01% Tween 20).
To each well, the test compound (1 μL) was first added (in duplicate) to reach a final concentration of 1 μM or 1×IC50 of the compound. The kinase (5 μl) was then added to each well to reach a final concentration of […] for the kinase domain or […] for the full-length domain. Each plate included a positive and negative controls in duplicate wells. Crebtide (2.5 μL) was then added to each well in duplicate to reach a final concentration of 50 nM. If the full-length kinase was used, the plates were incubated for 45 min at room temperature before proceeding further. ATP (2.5 μL) was added to each well to reach a final concentration of 1 μM for the kinase domain and 3 μM for the full-length.
After the addition of ATP, the plates were incubated for 45 min at room temperature. During the incubation, an EDTA solution (40 mM) and anti-Crebtide ([…]) were prepared. Additionally, a detection buffer stock solution was diluted ten fold before use.
After the incubation, the anti-Crebtide (5 μL) and EDTA (5 μL) were added to each well to reach their final concentrations of […] and 10 mM, respectively. The plates were allowed to develop at room temperature for 45 min. The plates were then read at 665 nm and 615 nm using Perkin Elmer Lance machine.
The biological results of inhibition of the kinase domain protein of RC kinase are summarized in Tables 2 and 3, wherein A represents at least 50% inhibition of the RC kinase activity at 1 μM; B represents no greater than 50% but at least 20% inhibition of the RC kinase activity at 1 μM; C represents no greater than 20% but at least 5% inhibition of the RC kinase activity at 1 μM; and D represents no greater than 5% inhibition of the RC kinase activity at 1 μM.

| SMILES | inhibition at 1 µM [%] | Activity (inhibition of the RC kinase activity) |
| --- | --- | --- |
| N#Cc1c(Nc2cccc(Cl)c2)n[nH]c1/N=C/c1ccc(-c2ccccn2)s1 [Compound A2] | 20 to 50 |  |
| COc1ccc(/C=N/c2[nH]nc(Nc3ccccc3)c2C#N)cc1 [Compound A6] |  | B (no greater than 50% but at least 20% inhibition of the RC kinase activity at 1 μM) |
| COc1cc(/C=N/c2[nH]nc(Nc3cccc(Cl)c3)c2C#N)ccc1O [Compound A17] |  | B (no greater than 50% but at least 20% inhibition of the RC kinase activity at 1 μM) |
| N#Cc1c(Nc2ccccc2)n[nH]c1/N=C/c1ccc(C(F)(F)F)cc1 [Compound A18] |  | C (no greater than 20% but at least 5% inhibition of the RC kinase activity at 1 μM) |
| COc1cccc(/C=N/c2[nH]nc(Nc3cccc(Cl)c3)c2C#N)c1 [Compound A24] |  | D (no greater than 5% inhibition of the RC kinase activity at 1 μM) |
| N#Cc1c(Nc2cccc(Cl)c2)n[nH]c1/N=C/c1ccc[nH]1 [Compound A27] |  | C (no greater than 20% but at least 5% inhibition of the RC kinase activity at 1 μM) |
| N#Cc1c(Nc2ccccc2)n[nH]c1/N=C/c1ccc[nH]1 [Compound A28] | 5 to 20 |  |
| N#Cc1c(Nc2ccc(Cl)cc2)n[nH]c1/N=C/c1ccc[nH]1 [Compound A39] |  | D (no greater than 5% inhibition of the RC kinase activity at 1 μM) |
| COc1ccc(Nc2n[nH]c(/N=C/c3ccc(Cl)cc3)c2C#N)cc1 [Compound A44] |  | D (no greater than 5% inhibition of the RC kinase activity at 1 μM) |
| COc1ccc(Nc2n[nH]c(/N=C/c3ccccc3)c2C#N)cc1 [Compound A45] |  | D (no greater than 5% inhibition of the RC kinase activity at 1 μM) |
| N#Cc1c(NC2CCCCC2)n[nH]c1/N=C/c1ccc(O)cc1 [Compound A49, 3-(cyclohexylamino)-5-((4-hydroxybenzylidene)amino)-1H-pyrazole-4-carbonitrile] | ≤ 5 |  |
| COc1ccc(/C=N/c2[nH]nc(NC3CCCCC3)c2C#N)cc1 [Compound A50] |  | D (no greater than 5% inhibition of the RC kinase activity at 1 μM) |
| N#Cc1c(NC2CCCCC2)n[nH]c1/N=C/c1ccccc1 [Compound A51] |  | D (no greater than 5% inhibition of the RC kinase activity at 1 μM) |
| Cc1cc(C)cc(Nc2n[nH]c(/N=C/c3ccc(O)cc3)c2C#N)c1 [Compound A55] | 5 to 20 |  |
| N#Cc1c(Nc2cc(Cl)cc(Cl)c2)n[nH]c1/N=C/c1ccc(O)cc1 [Compound A56] | 5 to 20 |  |
| CC(C)(C)c1ccc(Nc2[nH]nc(N=Cc3ccc(O)cc3)c2C#N)cc1 [Compound A57, 5-((4-(tert-butyl)phenyl)amino)-3-((4-hydroxybenzylidene)amino)-1H-pyrazole-4-carbonitrile] | 5 to 20 |  |
| N#Cc1c(Nc2ccc(Cl)c(Cl)c2)n[nH]c1/N=C/c1ccc(O)cc1O [Compound A59] | ≤ 5 |  |
| Cn1nc(C(F)(F)F)c(/C=N/c2[nH]nc(Nc3cccc(Cl)c3)c2C#N)c1Cl [Compound A69] |  | C (no greater than 20% but at least 5% inhibition of the RC kinase activity at 1 μM) |
| N#Cc1c(Nc2cccc(Cl)c2)n[nH]c1/N=C/c1nc(-c2ccccc2)[nH]c1Cl [Compound A72] |  | B (no greater than 50% but at least 20% inhibition of the RC kinase activity at 1 μM) |
| N#Cc1c(Nc2cccc(Cl)c2)n[nH]c1/N=C/c1ccc(-c2ccc(Cl)cc2)o1 [Compound A73] |  | C (no greater than 20% but at least 5% inhibition of the RC kinase activity at 1 μM) |
| CN1CCN(c2ccc(/C=N/c3[nH]nc(Nc4cccc(Cl)c4)c3C#N)cc2)CC1 [Compound A74] |  | C (no greater than 20% but at least 5% inhibition of the RC kinase activity at 1 μM) |
| Cn1c(Cl)c(/C=N/c2[nH]nc(Nc3cccc(Cl)c3)c2C#N)c2ccccc21 [Compound A78] |  | C (no greater than 20% but at least 5% inhibition of the RC kinase activity at 1 μM) |

| SMILES | inhibition at 1 µM [%] | Activity (inhibition of the RC kinase activity) |
| --- | --- | --- |
| COc1cc(/C=N/c2[nH]nc(Nc3cccc(Cl)c3)c2C#N)cc(O)c1OC [Compound A85] |  | C (no greater than 20% but at least 5% inhibition of the RC kinase activity at 1 μM) |
| COc1ccc(/C=N/c2[nH]nc(Nc3cccc(Cl)c3)c2C#N)c(C)c1C [Compound A89] |  | C (no greater than 20% but at least 5% inhibition of the RC kinase activity at 1 μM) |
| N#Cc1c(Nc2cccc(Cl)c2)n[nH]c1/N=C/c1c(O)cccc1Cl [Compound A92] |  | D (no greater than 5% inhibition of the RC kinase activity at 1 μM) |
| Cc1ncsc1/C=N/c1[nH]nc(Nc2cccc(Cl)c2)c1C#N [Compound A104] |  | D (no greater than 5% inhibition of the RC kinase activity at 1 μM) |
| N#Cc1c(Nc2cccc(Cl)c2)n[nH]c1/N=C/c1cccs1 [Compound A105] |  | D (no greater than 5% inhibition of the RC kinase activity at 1 μM) |
| NC(=O)c1c(Nc2ccccc2)n[nH]c1/N=C/c1ccc(O)cc1 [Compound B10] |  | A (at least 50% inhibition of the RC kinase activity at 1 μM) |
| NC(=O)c1c(Nc2ccccc2)n[nH]c1/N=C/c1ccccc1 [Compound B11] |  | A (at least 50% inhibition of the RC kinase activity at 1 μM) |
| NC(=O)c1c(Nc2cccc(Cl)c2)n[nH]c1/N=C/c1ccc(C(F)(F)F)cc1 [Compound B16] |  | D (no greater than 5% inhibition of the RC kinase activity at 1 μM) |
| NC(=O)c1c(Nc2cccc(Cl)c2)n[nH]c1/N=C/c1ccc[nH]1 [Compound B17] |  | B (no greater than 50% but at least 20% inhibition of the RC kinase activity at 1 μM) |
| NC(=O)c1c(Nc2ccc(Cl)cc2)n[nH]c1/N=C/c1ccc(C(F)(F)F)cc1 [Compound B28] |  | D (no greater than 5% inhibition of the RC kinase activity at 1 μM) |
| NC(=O)c1c(Nc2cccc(Cl)c2)n[nH]c1/N=C/c1cc(F)cc2c1OCOC2 [Compound B29] |  | D (no greater than 5% inhibition of the RC kinase activity at 1 μM) |
| COc1cc(/C=N/c2[nH]nc(Nc3ccc(Cl)cc3)c2C(N)=O)ccc1O [Compound B32] |  | A (at least 50% inhibition of the RC kinase activity at 1 μM) |
| NC(=O)c1c(Nc2ccc(Cl)cc2)n[nH]c1/N=C/c1ccccc1OCC(=O)O [Compound B37] | ≤ 5 |  |
| NC(=O)c1c(Nc2cccc(Cl)c2)n[nH]c1/N=C/c1cc(O)ccc1O [Compound B38, 3-((3-chlorophenyl)amino)-5-((2,5-dihydroxybenzylidene)amino)-1H-pyrazole-4-carboxamide] | ≥ 50 |  |
| NC(=O)c1c(Nc2ccc([N+](=O)[O-])cc2)n[nH]c1/N=C/c1ccccc1 [Compound B39, (E)-5-(benzylideneamino)-3-((4-nitrophenyl)amino)-1H-pyrazole-4-carboxamide] | 5 to 20 |  |
| NC(=O)c1c(Nc2cccc(Cl)c2)n[nH]c1/N=C/c1ccc([N+](=O)[O-])c(O)c1 [Compound B45] | 20 to 50 |  |
| COc1cccc(O)c1/C=N/c1[nH]nc(Nc2cccc(Cl)c2)c1C(N)=O [Compound B48] |  | C (no greater than 20% but at least 5% inhibition of the RC kinase activity at 1 μM) |
| NC(=O)c1c(Nc2cccc(Cl)c2)n[nH]c1/N=C/c1cc([N+](=O)[O-])ccc1O [Compound B51] |  | C (no greater than 20% but at least 5% inhibition of the RC kinase activity at 1 μM) |
| COc1cc(/C=N/c2[nH]nc(Nc3cccc(Cl)c3)c2C(N)=O)ccc1OCc1cnc(Cl)s1 [Compound B55] | 5 to 20 |  |
| COc1ccc(/C=N/c2[nH]nc(Nc3cccc(Cl)c3)c2C(N)=O)c(C)c1C [Compound B57] |  | B (no greater than 50% but at least 20% inhibition of the RC kinase activity at 1 μM) |
| COc1ccc(F)cc1/C=N/c1[nH]nc(Nc2cccc(Cl)c2)c1C(N)=O [Compound B58] | 20 to 50 |  |
| NC(=O)c1c(Nc2cccc(Cl)c2)n[nH]c1/N=C/c1ccc(Cl)nc1 [Compound B59] | ≤ 5 |  |

Same assay, conditions: compound at 1 μM, 1 µM

| SMILES | Activity (inhibition of the RC kinase activity) |
| --- | --- |
| N#Cc1c(Nc2cccc(Cl)c2)n[nH]c1/N=C/c1ccc(Oc2ncccn2)cc1 [Compound A77] | D (no greater than 5% inhibition of the RC kinase activity at 1 μM) |

Source: patent US9365556B2, “3,5-diaminopyrazole kinase inhibitors” (Axikin Pharmaceuticals, Inc., priority 2012, dated 2016)
